Results reported in patent US12441777B2 (NXERA PHARMA UK LIMITED, priority 2018, dated 2025).

Columns and labels:
Human GLP-1R = target: T1, Human GLP-1R (Homo sapiens, UniProt P43220); test: Functional antagonism of human GLP1 receptors, cAMP accumulation assay (HiRange cAMP kit, HEK cells infected with GLP-1R Bacmam, GLP-1(7-36) amide at EC80); assay type: cell-based; conditions: functional pKb from IC50 corrected by Cheng-Prusoff adaptation, GLP-1(7-36) at EC80
T1 construct: expressed in transfected cells; host or cells: HEK cells infected with GLP-1R BacMam
T1 sequence (P43220 24-463): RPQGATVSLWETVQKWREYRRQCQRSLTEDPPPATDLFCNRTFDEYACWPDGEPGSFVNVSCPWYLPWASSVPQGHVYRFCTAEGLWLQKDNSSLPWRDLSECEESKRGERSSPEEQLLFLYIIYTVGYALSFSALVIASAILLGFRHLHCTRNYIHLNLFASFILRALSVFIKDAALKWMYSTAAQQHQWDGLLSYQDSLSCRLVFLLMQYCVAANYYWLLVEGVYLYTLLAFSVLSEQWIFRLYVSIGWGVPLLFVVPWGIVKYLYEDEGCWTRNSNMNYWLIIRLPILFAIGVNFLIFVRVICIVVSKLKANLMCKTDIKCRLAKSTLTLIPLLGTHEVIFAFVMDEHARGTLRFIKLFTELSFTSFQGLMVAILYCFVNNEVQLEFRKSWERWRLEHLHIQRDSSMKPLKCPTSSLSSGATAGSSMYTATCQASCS
Protocol: The method followed a two-step protocol provided in the kit. In brief, HEK cells infected with 1% v/v GLP-1R Bacmam for 24 h were harvested using cell dissociation solution (Gibco), centrifuged and resuspended in the assay buffer (HBSS (Lonza) supplemented with 0.5 mM IBMX (Tocris)). DMSO stock of test compounds were serially diluted in the assay buffer and added to 96-well half area white plates (Costar). Final DMSO concentration in the assay was 0.3%. 20K cells per well were added to plates followed by 30 min incubation (humidified air (5% CO2), 37° C.). […] Intracellular accumulation of cAMP was stopped by addition of the HTRF detection reagents in lysis buffer, provided in the kit. Following 1-hour incubation at RT, plates were read on Pherastar FS (BMG Labtech, Inc.) Dotmatics Studies software was used for fitting data to a four-parameter concentration response curve. Calculated IC50 values were corrected for the agonist concentration using an adaptation of the Cheng-Prusoff equation to generate functional pKb values: […]

Mouse GLP-1R = target: T2, Mouse GLP-1R (Mus musculus, UniProt O35659); test: Functional antagonism of mouse GLP1 receptors, cAMP accumulation assay (HitHunter, CHO-K1 cells stably expressing mouse GLP-1R, Exendin-4 at EC80); assay type: cell-based; conditions: functional pKb from IC50 corrected by Cheng-Prusoff adaptation
T2 construct: expressed in transfected cells
T2 sequence (O35659 22-463): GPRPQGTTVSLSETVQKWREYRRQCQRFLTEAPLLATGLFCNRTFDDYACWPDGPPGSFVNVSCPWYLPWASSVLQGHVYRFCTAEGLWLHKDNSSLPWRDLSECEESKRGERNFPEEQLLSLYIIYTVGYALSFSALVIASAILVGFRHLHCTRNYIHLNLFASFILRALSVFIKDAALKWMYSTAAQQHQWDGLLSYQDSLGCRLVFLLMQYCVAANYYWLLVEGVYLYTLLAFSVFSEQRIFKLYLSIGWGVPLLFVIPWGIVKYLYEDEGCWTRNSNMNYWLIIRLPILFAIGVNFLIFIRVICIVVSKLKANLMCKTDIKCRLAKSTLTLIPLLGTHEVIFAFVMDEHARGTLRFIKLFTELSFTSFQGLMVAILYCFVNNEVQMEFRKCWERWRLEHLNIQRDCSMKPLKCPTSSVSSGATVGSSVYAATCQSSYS
Text: Final DMSO concentration in the assay was 1%. […] Calculated IC50 values were corrected for the agonist concentration using an adaptation of the Cheng-Prusoff equation to generate functional pKb values: […]

Substance: exendin(9-39)amide [Ex 9-39]
- Human GLP-1R antagonist cAMP fpKb (Human GLP-1R): 7.8
- Mouse GLP-1R antagonist cAMP fpKb (Mouse GLP-1R): 7.2
